Results on one compound are retold here after patent publication US20190262261A1, “RADIATION SENSITIZER OR ANTI-CANCER CHEMOTHERAPY SENSITIZER” (priority 2006, published 2019).

Data set [1] concerns inoperable locally advanced malignant melanoma. On the procedure:
For a case of inoperable locally advanced malignant melanoma, sterilized cut cotton soaked in a hydrogen peroxide solution having a concentration of approximately 3 weight percent was used as a bolus, and irradiation by an electron beam from a linear accelerator (radiosensitization therapy) was then conducted.
Specifically, sterilized cut cotton soaked in a hydrogen peroxide solution having a concentration of approximately 3% was applied to the affected area of the locally advanced malignant melanoma as a bolus, and irradiation was conducted three times a week for four weeks, with each radiation dose amounting to 4 Gy (12 times, for a total radiation dosage of 48 Gy).

Data set [2] relates to radioresistant osteosarcoma cell lines (HS-Os-1). Particulars: 0.1 mM in culture solution, radiation in the order of 10 Gy; cited from earlier work.
Data set [3] in a line: Pain on intratumoral injection into SCCVII tumors of mice. It is filed as in vivo, C3H/He mouse. As to conditions: 1 ml, 27-gage needle, pH 6.8, 0.5% hydrogen peroxide, five mice per group, tumor about 10 mm. As to the method: (1) Mouse squamous epithelium cancer cells (SCCVII tumor cells) were transplanted into the right leg of the same kind of C3H/He mouse (8-week-old female), and the following experiment was conducted when the tumor had grown to about 10 mm in diameter.
When a 27-gage thin needle was used to intratumorally inject 1 ml of physiological saline (pH 6.8) containing 0.5% hydrogen peroxide into the tumors of five mice, the mice were all observed to feel strong pain, violently resisting the injection.

The nature of data set [4]: Pain on subcutaneous injection in normal volunteers. It is filed as in vivo, human. Particulars: 1 ml subcutaneous, pH 6.8, 0.5% hydrogen peroxide. As to the method:
(2) Based on the above results, the following experiment was conducted on five normal volunteers.
When a 27-gage thin needle was used to subcutaneously inject 1 ml of physiological saline (pH 6.8) containing 0.5% hydrogen peroxide into the inside of the left arms of five normal volunteers, all complained of severe pain limited to the injection site that lasted about 1 hour.

For the compound `OO` [hydrogen peroxide], the “length of malignant melanoma” value in data set [1] (2 weeks after RT, approximately 3% solution on cut cotton as bolus, 4 Gy x 12, total 48 Gy, approximately 8 cm before radiotherapy) was “approximately 5 cm”. Moreover, the “tumor outcome (summary in disclosure)” value in data set [1] (approximately 3 weight percent solution as bolus, 4 Gy three times a week, total 48 Gy) is reported as “disappearance of the tumor”. For the same compound, in data set [1] (three months after termination of radiotherapy, approximately 3% solution as bolus, total 48 Gy), the tumor outcome is “almost disappeared”. Also, the “effect on irradiated cells (reactive oxygen species, apoptosis)” value in data set [2] is recorded as “giving rise to apoptosis”. For the same compound, the “pain of the intratumoral injection” value in data set [3] is “strong pain”. In addition, in data set [4] (inside of arm, 27-gage needle, five volunteers), the “pain at the injection site” value is reported as “severe pain”. For the same compound, in data set [4] (left arm), the “duration of pain at the injection site” value is “about 1 hour”.
